Test results taken from patent US20220274983A1, “JAK KINASE INHIBITOR AND USE THEREOF” (JIANGSU CAREPHAR PHARMACEUTICAL CO., LTD., priority 2019, published 2022).

Assays:
BaF3 cells = assay: Proliferation inhibition based on BaF3 cells (IL-3 medium, CTG); assay type: cell-based; conditions: Mus musculus, medium containing IL-3, read-out: IC50 (uM), proliferation inhibitory activity on BaF3 cells
Protocol: 1. Cell plating: cultured cells were collected with RPMI1640+10% FBS (containing IL-3) medium and counted for viable cells with Vi-Cell XR cell counter. The cell suspension was adjusted to an appropriate concentration with RPMI1640+10% FBS (containing IL-3) medium and then added to a 96-well cell culture plate. A certain amount of cell suspension was added to each well of the 96-well cell culture plate. The cells were cultured in corresponding incubators.
2. Drug treatment: a series of test compound concentration (work solution-1) was prepared using DMSO with 3× gradient dilution, and then it was subjected to fold dilution with RPMI1640+10% FBS (containing IL-3) to obtain a work solution-2; Cisplatin's work solution-2 was prepared with RPMI1640+10% FBS (containing IL-3), and then 1-10 μL solution taken from the work solution-2 was added to the prepared cell wells containing medium. The cells were cultured in the corresponding incubators. An appropriate CTG solution was added to each well.
Cell Survival Rate Calculation
T is the luminescence reading of a drug treatment group, and C is the average luminescence reading of a solvent control group.

[1] = target: T1, humanether-a-go-go related gene (hERG) channels (Homo sapiens, UniProt Q12809); assay: hERG test, patch clamp in HEK293 cells; assay type: cell-based; conditions: HEK293 cells expressing hERG, tail current
T1 construct: expressed in transfected cells; host or cells: HEK293
Source text: For the purpose of evaluating the risk of prolonged QT interval in ECG of the compound according to the present invention, HEK293 cells expressing humanether-a-go-go related gene (hERG) channels were used to study the effect of the compound according to the present invention on the delayed rectifier K+ current (Ikr) playing an important role in ventricular repolarization.
The cells are maintained at −80 mV using a fully automatic patch clamp system (patch clamp PC-505B (WARNER instruments)) through a fully automatic patch clamp method, and then depolarized to 40 mV with a square wave lasting 4 s and hyperpolarized to −40 mV with a square wave lasting 2 s to obtain the hERG tail current. The maximum current induced by the second square wave was detected. After this current was stabilized, the test compound was perfused. After the reaction was stabilized, the blocking strength was calculated.
Extracellular fluid (mM): NaCl, 137; KCl, 4; CaCl2, 1.8; MgCl2, 1; HEPES, 10; glucose 10; pH 7.4 (NaOH titration). Intracellular fluid (mM): K Aspartate, 130; MgCl2, 5; EGTA 5; HEPES, 10; Tris-ATP 4; pH 7.2 (KOH titration).

[2] = tested on: Salmonella TA98, TA100, TA1535, TA1537 and Escherichia coli; assay: Reverse mutation test (Ames test); set-up: species or system Salmonella typhimurium; conditions: non-metabolic activation conditions and activation conditions (-S9/+S9)
Protocol: Salmonella TA98, TA100, TA1535, TA1537 and Escherichia coli were used as test strains (strain source: Molecular Toxicology, Inc.). Ames test was performed under non-metabolic activation conditions and activation conditions to investigate whether the compounds according to the present invention have gene mutation inducing properties.
The cryopreserved strains were resuscitated, inoculated into nutrient broth medium and cultured in a 37° C. constant temperature shaker at 100 to 120 rpm for 11 h. The bottom agar medium (containing an appropriate amount of agar, V-B buffer, 20% glucose solution, 20% magnesium sulfate solution) was poured into a dish to cool for later use. […] The cultured plate was removed, counted and compared with the DMSO group for evaluation. If the average number of reverted colonies is twice or more than the number of reverted colonies in the negative control group (which can be regarded as spontaneous reverted number) (TA1535: 3 times or more) and there is a dose-effect relationship, the result is positive, and the test sample can be determined to be a mutagenic agent. […]

Pharmacokinetic study = assay type: in vivo; conditions: rat, plasma; rats, oral, 1-10 mg/kg
Protocol: For the intravenous route and the oral route, the compound was formulated in an aqueous solution containing 5% DMSO+95% hydroxypropyl-β-cyclodextrin. Test animals were administered orally at 1-10 mg/kg and intravenously at 1-5 mg/kg. Each group included 3 rats. About 0.2 mL of blood was collected by jugular vein puncture with heparin sodium anticoagulant at the following time points: 0.083 h, 0.25 h, 0.5 h, 1 h, 2 h, 4 h, 6 h, 8 h, 10 h and 24 h. Plasma was separated by centrifugation at 5000-13000 rpm for 10 min within 1 hour after collecting the blood sample, and the plasma sample was analyzed on LC-MS/MS.
The pharmacokinetic parameters were calculated using Phoenix WinNonlin 7.0 based on blood drug concentration data at different time points to provide parameters such as AUC0-t, AUC0-∞, MRT0-∞, Cmax, Tmax, and T1/2.

T1 sequence (Q12809 whole entry): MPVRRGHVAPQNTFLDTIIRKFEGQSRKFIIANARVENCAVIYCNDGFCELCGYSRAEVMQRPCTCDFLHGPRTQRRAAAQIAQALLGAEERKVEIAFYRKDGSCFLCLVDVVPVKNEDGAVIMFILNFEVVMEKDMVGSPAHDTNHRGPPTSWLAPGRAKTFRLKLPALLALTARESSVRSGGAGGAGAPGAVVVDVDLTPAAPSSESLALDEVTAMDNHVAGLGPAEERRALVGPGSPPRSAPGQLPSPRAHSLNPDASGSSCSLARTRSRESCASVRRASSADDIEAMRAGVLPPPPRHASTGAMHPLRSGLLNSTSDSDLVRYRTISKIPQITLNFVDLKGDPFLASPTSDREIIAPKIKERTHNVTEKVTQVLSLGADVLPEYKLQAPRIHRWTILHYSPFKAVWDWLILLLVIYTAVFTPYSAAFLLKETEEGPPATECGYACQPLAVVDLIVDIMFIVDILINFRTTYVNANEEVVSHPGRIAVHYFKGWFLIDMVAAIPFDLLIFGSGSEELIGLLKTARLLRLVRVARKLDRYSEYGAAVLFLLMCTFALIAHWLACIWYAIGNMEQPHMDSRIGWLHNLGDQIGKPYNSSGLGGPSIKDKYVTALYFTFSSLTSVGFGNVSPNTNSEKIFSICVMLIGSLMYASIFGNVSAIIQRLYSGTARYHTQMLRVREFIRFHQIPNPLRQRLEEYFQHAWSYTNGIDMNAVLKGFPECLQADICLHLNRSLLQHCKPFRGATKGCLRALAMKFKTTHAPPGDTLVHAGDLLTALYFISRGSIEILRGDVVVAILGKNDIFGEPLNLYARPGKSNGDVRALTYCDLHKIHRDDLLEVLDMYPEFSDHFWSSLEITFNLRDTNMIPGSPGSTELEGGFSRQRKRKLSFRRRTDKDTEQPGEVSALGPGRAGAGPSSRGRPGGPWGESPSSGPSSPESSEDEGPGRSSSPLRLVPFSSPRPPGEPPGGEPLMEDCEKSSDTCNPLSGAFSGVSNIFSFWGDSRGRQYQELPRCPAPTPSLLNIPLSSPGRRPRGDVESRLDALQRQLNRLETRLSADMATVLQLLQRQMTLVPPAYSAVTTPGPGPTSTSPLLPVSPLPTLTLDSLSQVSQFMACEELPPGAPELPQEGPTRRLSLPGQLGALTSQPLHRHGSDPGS
Protocol for Body weight of CIA rats: Lewis rats (female, 10-12 weeks old) were obtained from Beijing Vital River Laboratory Animal Technology Co., Ltd. The rats were on a light and dark alternation for 12 h, and the environment was kept at a temperature of 23±2° C. and a humidity of 40-70%.
Type II collagen solution (2 mg/mL) was prepared with 0.05 M acetic acid solution to allow to be fully dissolved, and placed overnight in the dark at 4° C. During the test, 2 mg/mL type II collagen (C II) solution and 4 mg/mL complete Freund's adjuvant (CFA) solution were mixed in equal volumes under ice bath conditions to fully emulsify. On day 0, an emulsion prepared by mixing equal volumes of C II (2 mg/mL) and CFA (4 mg/mL) was injected intracutaneously into the base of the tail of experimental rats for primary immunization, and on day 7, secondary booster immunization was performed.
The therapeutic effect of the test compound was tested in a rat CIA model. The rats were randomly divided into groups with 8 animals in each group. All animals were immunized on day 0 and boosted on day 7.
Therefore, the differences in body weight and foot volume after the onset of arthritis compared with the negative group, respectively, can be used to evaluate the therapeutic effect in the rat model. The experimental data were expressed as Mean±SEM; the data between the two groups was tested by unpaired t-test and p<0.05 was considered as a significant difference.

With O=C(Nc1cn2c(-c3ccc(CN4CCS(=O)(=O)CC4)s3)cccc2n1)[C@H]1C[C@@H]1F (relative stereo) [EXP-3, trans-N-[5-[5-[(1,1-dioxo-1,4-thiazin-4-yl)methyl]-2-thiophene]imidazo[1,2-a]pyridin-2-yl]-2-fluoro-cyclopropylcarboxamide] the IC50 (BaF3 cells) was less than 5 µM, the IC50 [1] was greater than 10 µM and the Ames test result [2] was “negative”. For the same molecule, the “Body weight (g)/Day” value (Body weight of CIA rats; 2 mg/kg oral gavage once daily for 2 w, day 0) was 172.3 ± 1.9 g, the “Body weight (g)/Day” value (Body weight of CIA rats; 2 mg/kg oral gavage once daily for 2 w, day 8) was 172.6 ± 0.7 g and the “Body weight (g)/Day” value (Body weight of CIA rats; 2 mg/kg oral gavage once daily for 2 w, day 11) was 172.3 ± 1.8 g. The “Body weight (g)/Day” value (Body weight of CIA rats; 2 mg/kg oral gavage once daily for 2 w, day 14) was 170.3 ± 1 g, the “Body weight (g)/Day” value (Body weight of CIA rats; 2 mg/kg oral gavage once daily for 2 w, day 17) was 169.1 ± 1.2 g and the “Body weight (g)/Day” value (Body weight of CIA rats; 2 mg/kg oral gavage once daily for 2 w, day 21) was 164.9 ± 1.8 g. The “Body weight (g)/Day” value (Body weight of CIA rats; 2 mg/kg oral gavage once daily for 2 w, day 24) was 166.4 ± 2.6 g, the “Body weight (g)/Day” value (Body weight of CIA rats; 2 mg/kg oral gavage once daily for 2 w, day 28) was 166.9 ± 2.7 g and the “Body weight (g)/Day” value (Body weight of CIA rats; 3 mg/kg oral gavage once daily for 2 w, day 0) was 174.5 ± 1.3 g. For the same molecule, the “Body weight (g)/Day” value (Body weight of CIA rats; 3 mg/kg oral gavage once daily for 2 w, day 8) was 172.4 ± 2.7 g, the “Body weight (g)/Day” value (Body weight of CIA rats; 3 mg/kg oral gavage once daily for 2 w, day 11) was 170.8 ± 3.8 g and the “Body weight (g)/Day” value (Body weight of CIA rats; 3 mg/kg oral gavage once daily for 2 w, day 14) was 171.6 ± 2.9 g. For the same molecule, the “Body weight (g)/Day” value (Body weight of CIA rats; 3 mg/kg oral gavage once daily for 2 w, day 17) was 170.1 ± 2.7 g, the “Body weight (g)/Day” value (Body weight of CIA rats; 3 mg/kg oral gavage once daily for 2 w, day 21) was 166.8 ± 1.8 g and the “Body weight (g)/Day” value (Body weight of CIA rats; 3 mg/kg oral gavage once daily for 2 w, day 24) was 165 ± 1.8 g. The “Body weight (g)/Day” value (Body weight of CIA rats; 3 mg/kg oral gavage once daily for 2 w, day 28) was 169.3 ± 2 g, the “Body weight (g)/Day” value (Body weight of CIA rats; 5 mg/kg oral gavage once daily for 2 w, day 0) was 171.8 ± 2.3 g and the “Body weight (g)/Day” value (Body weight of CIA rats; 5 mg/kg oral gavage once daily for 2 w, day 8) was 171.1 ± 3.1 g. For the same molecule, the “Body weight (g)/Day” value (Body weight of CIA rats; 5 mg/kg oral gavage once daily for 2 w, day 11) was 170.9 ± 4.5 g, the “Body weight (g)/Day” value (Body weight of CIA rats; 5 mg/kg oral gavage once daily for 2 w, day 14) was 171.4 ± 2.4 g and the “Body weight (g)/Day” value (Body weight of CIA rats; 5 mg/kg oral gavage once daily for 2 w, day 17) was 172.8 ± 2.2 g. The “Body weight (g)/Day” value (Body weight of CIA rats; 5 mg/kg oral gavage once daily for 2 w, day 21) was 166.5 ± 1.9 g, the “Body weight (g)/Day” value (Body weight of CIA rats; 5 mg/kg oral gavage once daily for 2 w, day 24) was 165.3 ± 1.7 g and the “Body weight (g)/Day” value (Body weight of CIA rats; 5 mg/kg oral gavage once daily for 2 w, day 28) was 169.1 ± 2.1 g. The “body weight course, in words” value (Body weight of CIA rats; 10 mg/kg) was “increased slightly on days 11-17, but then fell back”, the “Body weight (g)/Day” value (Body weight of CIA rats; 10 mg/kg oral gavage once daily for 2 w, day 0) was 173.9 ± 1.8 g and the “Body weight (g)/Day” value (Body weight of CIA rats; 10 mg/kg oral gavage once daily for 2 w, day 8) was 175.3 ± 2.1 g. The “Body weight (g)/Day” value (Body weight of CIA rats; 10 mg/kg oral gavage once daily for 2 w, day 11) was 175.9 ± 2.8 g, the “Body weight (g)/Day” value (Body weight of CIA rats; 10 mg/kg oral gavage once daily for 2 w, day 14) was 175.3 ± 2.2 g and the “Body weight (g)/Day” value (Body weight of CIA rats; 10 mg/kg oral gavage once daily for 2 w, day 17) was 176.4 ± 3.3 g. For the same molecule, the “Body weight (g)/Day” value (Body weight of CIA rats; 10 mg/kg oral gavage once daily for 2 w, day 21) was 171.8 ± 2.9 g, the “Body weight (g)/Day” value (Body weight of CIA rats; 10 mg/kg oral gavage once daily for 2 w, day 24) was 166.3 ± 2.9 g and the “Body weight (g)/Day” value (Body weight of CIA rats; 10 mg/kg oral gavage once daily for 2 w, day 28) was 170.4 ± 3.1 g.
Molecule O=C(Nc1nc2cccc(-c3ccc(CN4CCS(=O)(=O)CC4)s3)n2n1)C1CC1 [EXP-1] has an IC50 (BaF3 cells) of less than 5 µM, an AUC (Pharmacokinetic study) of 12000 ng·h/mL and a Cmax (Pharmacokinetic study) of 2630 ng/mL. It also gave a half-life (Pharmacokinetic study) of 161 min.
